These results are taken from patent US6514961B1, “Azetidinecarboxamide derivatives for the treatment of CNS disorders” (Vernalis Research Limited, priority 1998, dated 2003).

One series is described as follows: Solubility measurement. Format: physicochemical.
For series [1], the system named is anxiety (elevated zero-maze). Description: Elevated zero-maze model of anxiolytic activity. To be noted: dose of 30 mg/Kg, orally 1 hour prior to zero-maze testing. The format is in vivo, rats. The source says: Measurement of Anxiolytic Activity in Mice Using the Elevated Zero-maze Model
The elevated “zero-maze” is a modification of the elevated plus-maze model of anxiety which incorporates both traditional and novel ethological measures in the analysis of drug effects (Shepherd, J. K., Grewal, S. S., Fletcher, A., Bill, D. J. and Dourish, C. T., Behavioural and pharmacological characterisation of the elevated “zero-maze” as an animal model of anxiety. Psychopharmacology, 1994, 116, 56-64).
Male Sprague-Dawley rats (Charles River) weighing 300-450 gm are used. Animals are group-housed (5 per cage; cage size: 40×40×20 cm) in a temperature-controlled environment (20±2° C.), under a 12 h light-dark cycle (lights on: 08:00 hours). Food and water are made freely available. Four hours prior to testing, animals are transferred to clean cages and moved to the testing room in order to habituate to the testing environment.
The maze is comprised of a black Perspex annular platform (105 cm diameter, 10 cm width) elevated to 65 cm above ground level, divided equally into four quadrants. […]
Rats are placed on a closed quadrant and a 5 min test period is recorded on video-tape. […] Animals are scored as being in the open area when all four paws were in an open quadrant, and in the closed area only when all four paws passed over the open/closed divide. […]

A further series relates to 3-MPA-induced seizures. Put plainly: Antagonism of 3-MPA-induced seizures. Format: in vivo. Particulars: male T/O mice; test drug 30 ng/kg p.o. 60 min before i.v. bolus of 3-MPA; dose of 3-MPA required to evoke a seizure response. Here is the method:
Antagonism of 3-MPA-Induced Seizures
Several animal seizure models are available for the screening and characterisation of anticonvulsant (antiepileptic) drugs. Most models employ a chemical convulsant to induce seizures and the anticonvulsant potencies of novel compounds are measured in terms of their ability to increase the dose of convulsant required to induce a seizure response (or to prolong the latency to seizure onset following a bolus dose of the convulsant). Most chemical convulsants work by blocking the neurotransmitter function of gamma-aminobutyric acid (GABA), the predominant inhibitory neurotransmitter in the mammalian brain. This can be achieved by blocking the postsynaptic action of GABA using pentylenetetrazol or bicuculline, or via a presynaptic action using a GABA synthesis inhibitor to decrease GABA release into the synapse. In this case, the inhibitor of glutamate decarboxylase (GAD), 3-mercaptopropionic acid (3-MPA), was used as the convulsant challenge agent.
Male albino T/O strain mice (obtained from Tuck) weighing 28-40 g were used in these studies. Animals were assigned randomly to treatment groups and vehicle or test drug (at a dose of […]) were administered p.o. to groups of 12 animals 60 min before the administration of a bolus dose of 3-MPA intravenously. Immediately following 3-MPA administration, each mouse was placed individually into a cage for observation. The seizure response of each animal was scored quantally as present or absent (response or non-response) during the 5 min period immediately following 3-MPA administration. A seizure response was defined as the onset of the initial clonic phase of the seizure (abrupt loss of righting reflex accompanied by vocalisation). The seizure threshold (in terms of mg/kg i.v. of 3-MPA required to evoke a seizure response) was determined in each treatment group by a sequential up/down method followed by modified probit analysis of the quantal data A range of doses of 3-MPA was prepared (12.5-200.0 mg/kg i.v.) increasing by a constant geometric factor […], which was found in pilot studies to generate suitable data for analysis by this method.
In these studies, 3-MPA was obtained from Sigma
Test compounds were prepared as solutions dissolved in 45% w/v aqueous 2-hydroxypropyl-β-cyclodextrin. 3-MPA was dissolved in isotonic saline and its pH adjusted to 6 using 1M sodium hydroxide solution. Drugs were administered in a dose volume of 10 ml/kg body weight.

One may read the melting point as the temperature of the solid-liquid transition.

Regarding `C=CCNC(=O)N1CC(Oc2ccc(C(F)(F)F)cc2)C1` [3-(4-(trifluoromethyl)phenoxy)-N-(2-propenyl)azetidine-1-carboxamide], the “Aqueous solubility at 1 mg/ml” value in the series “Solubility measurement” is recorded as “Not soluble”.
Consider `C[C@@H](O)CNC(=O)N1CC(Oc2ccc(Cl)cc2)C1` (racemic) [Example 7, (R,S)-3-(4-Chlorophenoxy)-N-(2-hydroxypropyl)azetidine-1-carboximide], for which the “anxiolytic activity (increase in the frequency of head dips)” value in series [1] is on record as “effective”.
As to `C[C@@H](O)CNC(=O)N1CC(Oc2ccc(Cl)c(Cl)c2)C1` [Example 6, (R)-3-(3,4-Dichlorophenoxy)-N-(2-hydroxypropyl)azetidine-1-carboxamide], the “SC = seizure threshold after treatment with test drug” value (shortened to “SC = seizure threshold”) in the series with 3-MPA-induced seizures is listed as 59.5 mg/kg i.v.
Regarding `CCCNC(=O)N1CC(Oc2ccc(Cl)cc2)C1` [3-(4-chlorophenoxy)-N-(propyl)azetidine-1-carboxamide], the “Aqueous solubility at 1 mg/ml” value in the series “Solubility measurement” is given as “Not soluble”.
On the same count and under the same terms, then `NC(=O)N1CC(Oc2ccc(Cl)cc2)C1` [3-(4-chlorophenoxy)azetidine-1-carboxamide], with “Not soluble”.
Regarding `C[C@H](O)CNC(=O)N1CC(Oc2ccc(Cl)cc2)C1` [Example 3, (S)-3-(4-Chlorophenoxy)-N-(2-hydroxypropyl)azetidine-1-carboxamide], the “SC = seizure threshold” value in the series on 3-MPA-induced seizures is on record as 59.5 mg/kg i.v.
In the case of `C[C@@H](O)CNC(=O)N1CC(Oc2ccc(Cl)cc2)C1` [Example 2, (R)-3-(4-Chlorophenoxy)-N-(2-hydroxypropyl)azetidine-1-carboxamide], in the series “Solubility measurement”, the “Aqueous solubility at 1 mg/ml” value is recorded as “Soluble”. The “SC = seizure threshold” value in the series with 3-MPA-induced seizures is 109.1 mg/kg i.v.
For `C[C@@H](O)CNC(=O)N1CC(Oc2ccc(C(F)(F)F)cc2)C1` [Example 8] the same measures were “Soluble” and 214.1 mg/kg i.v.
Regarding `CC(C)(O)CNC(=O)N1CC(Oc2ccc(Cl)cc2)C1` [Example 4, 3-(4-Chlorophenoxy)-N-(2-hydroxy-2-methylpropyl)azetidine-1-carboxamide], in the series on 3-MPA-induced seizures, the “SC = seizure threshold” value is reported as 36.9 mg/kg i.v.
The molecule `C[C@@H](O)CNC(=O)N1CC(Oc2ccc(F)cc2)C1` [Example 5, (R)-3-(4-Fluorophenoxy)-N-(2-hydroxypropyl)azetidine-1-carboxamide] had a melting point of 112 to 114 °C. For the same molecule, in the series on 3-MPA-induced seizures, the “SC = seizure threshold” value worked out at 29.8 mg/kg i.v.
For `C[C@@H](O)CNC(=O)N1CC(Oc2ccc(C(C)(C)C)cc2)C1` [Example 1, (R)-3-(4-tert-Butylphenoxy)-N-(2-hydroxypropyl)azetidine-1-carboxamide] the same measures were 98 to 99 °C and 154.3 mg/kg i.v.
